Source: patent US9447100B2, “Substituted pyrazolo[1,5-A] pyrimidines as calcium receptor modulating agents” (Takeda Pharmaceutical Company Limited, priority 2002, dated 2016)
Structures can show the parent of a compound that is named as a salt.

Q: With `CCC1(CC)CC(c2ccccc2)Nc2c(C(=O)NC34CC5CC(CC(C5)C3)C4)cnn21` (stereo not drawn) as the compound, how does the melting point read?
A: 213 to 214 °C

Q: With `O=C(NC12CC3CC(CC(C3)C1)C2)c1cnn2c1NC(c1ccccc1)CC21CCCCC1` (stereo not drawn) as the compound, how does the melting point read?
A: 274 to 275 °C

Q: For `CCC(CC)(NC(=O)c1cnn2c1NC(c1ccccc1)CC2(C)C)c1ccc(-c2cccnc2)cc1` (stereo not drawn) (as salt: HCl) [Example 583, N-(1-ethyl-1-(4-(3-pyridinyl)phenyl)propyl)-7,7-dimethyl-5-phenyl-4,5,6,7-tetrahydropyrazolo[1,5-a]pyrimidine-3-carboxamide], which melting point is on record?
A: 168 to 169 °C

Q: For `CCC1(NC(=O)c2cnn3c2NC(c2ccccc2)CC3(C)C)CCCC1` (stereo not drawn) (as salt: HCl) [Example 588, N-(1-ethylcyclopentyl)-7,7-dimethyl-5-phenyl-4,5,6,7-tetrahydropyrazolo[1,5-a]pyrimidine-3-carboxamide], which melting point is on record?
A: 140 to 142 °C

Q: Which melting point does the source give for `CCC(CC)(NC(=O)c1c(C)nn2c1NC(c1ccccc1)CC2(C)C)c1ccc(Cl)cc1` (stereo not drawn) (as salt: HCl) [Example 723, N-(1-(4-chlorophenyl)-1-ethylpropyl)-2,7,7-trimethyl-5-phenyl-4,5,6,7-tetrahydropyrazolo[1,5-a]pyrimidine-3-carboxamide] here?
A: 180 to 181 °C

Q: With `CCC(CC)(NC(=O)c1c(C)nn2c1NC(c1ccccc1)CC2(C)C)c1ccc(Br)cc1` (stereo not drawn) (as salt: HCl) [Example 738, N-(1-(4-bromophenyl)-1-ethylpropyl)-2,7,7-trimethyl-5-phenyl-4,5,6,7-tetrahydropyrazolo[1,5-a]pyrimidine-3-carboxamide] as the compound, how does the melting point read?
A: 185 to 187 °C

Q: Which melting point does the source give for `CCC(CC)(NC(=O)c1cnn2c1NC(c1ccccc1)CC2(C)C)c1ccc(C)c(C)c1` (stereo not drawn) (as salt: HCl) [Example 769, N-(1-(3,4-dimethylphenyl)-1-ethylpropyl)-7,7-dimethyl-5-phenyl-4,5,6,7-tetrahydropyrazolo[1,5-a]pyrimidine-3-carboxamide] here?
A: 137 to 138 °C

Q: With `CCC(CC)(NC(=O)c1c(SC)nn2c1NC(c1ccccc1)CC2(C)C)c1ccc(Cl)cc1` (stereo not drawn) (as salt: HCl) [Example 780, N-(1-(4-chlorophenyl)-1-ethylpropyl)-7,7-dimethyl-2-(methylthio)-5-phenyl-4,5,6,7-tetrahydropyrazolo[1,5-a]pyrimidine-3-carboxamide] as the compound, how does the melting point read?
A: 115 to 117 °C

Q: With `CCC(CC)(NC(=O)c1c(C)nn2c1NC(c1ccccc1C)CC2(C)C)c1ccc(C)cc1` (stereo not drawn) (as salt: HCl) [Example 782, N-(1-ethyl-1-(4-methylphenyl)propyl)-2,7,7-trimethyl-5-(2-methylphenyl)-4,5,6,7-tetrahydropyrazolo[1,5-a]pyrimidine-3-carboxamide] as the compound, how does the melting point read?
A: 187 to 188 °C

Q: Which melting point does the source give for `CC(C)(NC(=O)c1cnn2c1NC(c1ccccc1)CC2(C)C)c1ccc(Cl)cc1` (stereo not drawn) (as salt: HCl) [Example 791, N-(1-(4-chlorophenyl)-1-methylethyl)-7,7-dimethyl-5-phenyl-4,5,6,7-tetrahydropyrazolo[1,5-a]pyrimidine-3-carboxamide] here?
A: 207 to 208 °C

Q: Which melting point does the source give for `Cc1nn2c(c1C(=O)NC(C)(C)c1ccc(Cl)cc1)NC(c1ccccc1)CC2(C)C` (stereo not drawn) (as salt: HCl) [Example 792, N-(1-(4-chlorophenyl)-1-methylethyl)-2,7,7-trimethyl-5-phenyl-4,5,6,7-tetrahydropyrazolo[1,5-a]pyrimidine-3-carboxamide] here?
A: 204 to 205 °C

Q: For `Cc1ccc(C(C)(C)NC(=O)c2cnn3c2NC(c2ccccc2)CC3(C)C)cc1` (stereo not drawn) (as salt: HCl) [Example 793, 7,7-dimethyl-N-(1-methyl-1-(4-methylphenyl)ethyl)-5-phenyl-4,5,6,7-tetrahydropyrazolo[1,5-a]pyrimidine-3-carboxamide], which melting point is on record?
A: 150 to 151 °C

Q: Which melting point does the source give for `Cc1ccc(C(C)(C)NC(=O)c2c(C)nn3c2NC(c2ccccc2)CC3(C)C)cc1` (stereo not drawn) (as salt: HCl) [Example 794, 2,7,7-trimethyl-N-(1-methyl-1-(4-methylphenyl)ethyl)-5-phenyl-4,5,6,7-tetrahydropyrazolo[1,5-a]pyrimidine-3-carboxamide] here?
A: 193 to 194 °C

Q: With `CCCCOC(=O)CCc1ccc(C(CC)(CC)NC(=O)c2cnn3c2NC(c2ccccc2)CC3(C)C)cc1` (stereo not drawn) (as salt: HCl) [Example 815, butyl 3-(4-(1-(((7,7-dimethyl-5-phenyl-4,5,6,7-tetrahydropyrazolo[1,5-a]pyrimidin-3-yl)carbonyl)amino)-1-ethyl-propyl)phenyl)propanoate] as the compound, how does the melting point read?
A: 143 to 144 °C

Q: Which melting point does the source give for `CCC(CC)(NC(=O)c1cnn2c1NC(c1ccccc1)CC2(C)C)c1ccc(CCC(=O)OC(C)C)cc1` (stereo not drawn) (as salt: HCl) [Example 816, isopropyl 3-(4-(1-(((7,7-dimethyl-5-phenyl-4,5,6,7-tetrahydropyrazolo[1,5-a]pyrimidin-3-yl)carbonyl)amino)-1-ethyl-propyl)phenyl)propanoate] here?
A: 150 to 151 °C

Q: Which melting point does the source give for `CCC(CC)(NC(=O)c1cnn2c1NC(c1cccc(OC)c1)CC2(C)C)c1ccc(C)cc1` (stereo not drawn) (as salt: HCl) [Example 820, N-(1-ethyl-1-(4-methylphenyl)propyl)-5-(3-methoxyphenyl)-7,7-dimethyl-4,5,6,7-tetrahydropyrazolo[1,5-a]pyrimidine-3-carboxamide] here?
A: 168 to 169 °C

Q: Which melting point does the source give for `CCC(CC)(NC(=O)c1c(C)nn2c1NC(c1ccccc1)CC2(C)C)c1ccc(N(C)C)cc1` (stereo not drawn) (as salt: HCl) [Example 821, N-(1-(4-(dimethylamino)phenyl)-1-ethylpropyl)-2,7,7-trimethyl-5-phenyl-4,5,6,7-tetrahydropyrazolo[1,5-a]pyrimidine-3-carboxamide] here?
A: 140 to 141 °C

Q: For `CCC(CC)(NC(=O)c1cnn2c1N(C)C(c1ccccc1)CC2(C)C)c1ccc(C)cc1` (stereo not drawn) (as salt: HCl) [Example 827, N-(1-ethyl-1-(4-methylphenyl)propyl)-4,7,7-trimethyl-5-phenyl-4,5,6,7-tetrahydropyrazolo[1,5-a]pyrimidine-3-carboxamide], which melting point is on record?
A: 120 to 121 °C

Q: For `CCC(CC)(NC(=O)c1c(C)nn2c1NC(c1ccccc1F)CC2(C)C)c1ccc(C)cc1` (stereo not drawn) (as salt: HCl) [Example 831, N-(1-ethyl-1-(4-methylphenyl)propyl)-5-(2-fluorophenyl)-2,7,7-trimethyl-4,5,6,7-tetrahydropyrazolo[1,5-a]pyrimidine-3-carboxamide], which melting point is on record?
A: 152 to 153 °C

Q: For `CCCC(CC)(CC)NC(=O)c1c(C)nn2c1NC(c1ccccc1)CC2(C)C` (stereo not drawn) (as salt: HCl) [Example 838, N-(1,1-diethylbutyl)-2,7,7-trimethyl-5-phenyl-4,5,6,7-tetrahydropyrazolo[1,5-a]pyrimidine-3-carboxamide], which melting point is on record?
A: 176 to 177 °C

Q: With `CCC(CC)(NC(=O)c1c(C)nn2c1NC(c1ccccc1F)CC2(C)C)c1ccccc1` (stereo not drawn) (as salt: HCl) [Example 840, N-(1-ethyl-1-phenylpropyl)-5-(2-fluorophenyl)-2,7,7-trimethyl-4,5,6,7-tetrahydropyrazolo[1,5-a]pyrimidine-3-carboxamide] as the compound, how does the melting point read?
A: 160 to 162 °C

Q: Which melting point does the source give for `CCC(CC)(NC(=O)c1c(C)nn2c1NC(c1ccccc1)CC2(C)C)c1ccccc1F` (stereo not drawn) (as salt: HCl) [Example 843, N-(1-ethyl-1-(2-fluorophenyl)propyl)-2,7,7-trimethyl-5-phenyl-4,5,6,7-tetrahydropyrazolo[1,5-a]pyrimidine-3-carboxamide] here?
A: 180 to 182 °C

Q: With `CCC(CC)(NC(=O)c1c(C)nn2c1NC(c1cccs1)CC2(C)C)c1ccc(C)cc1` (stereo not drawn) (as salt: HCl) [Example 956, N-(1-ethyl-1-(4-methylphenyl)propyl)-2,7,7-trimethyl-5-(2-thienyl)-4,5,6,7-tetrahydropyrazolo[1,5-a]pyrimidine-3-carboxamide] as the compound, how does the melting point read?
A: 149 to 150 °C

Q: With `CCCC(CC)(CC)NC(=O)c1c(C)nn2c1NC(c1ccccc1F)CC2(C)C` (stereo not drawn) (as salt: HCl) [Example 957, N-(1,1-diethylbutyl)-5-(2-fluorophenyl)-2,7,7-trimethyl-4,5,6,7-tetrahydropyrazolo[1,5-a]pyrimidine-3-carboxamide] as the compound, how does the melting point read?
A: 181 to 182 °C

Q: With `CCC(CC)(NC(=O)c1c(C)nn2c1NC(c1cccs1)CC2(C)C)c1ccccc1` (stereo not drawn) (as salt: HCl) [Example 958, N-(1-ethyl-1-phenylpropyl)-2,7,7-trimethyl-5-(2-thienyl)-4,5,6,7-tetrahydropyrazolo[1,5-a]pyrimidine-3-carboxamide] as the compound, how does the melting point read?
A: 171 to 172 °C

Q: With `CCC(CC)(NC(=O)c1cnn2c1NC(c1ccc(OC)cc1)CC2(C)C)c1ccc(C)cc1` (stereo not drawn) (as salt: HCl) [Example 960, N-[1-ethyl-1-(4-methylphenyl)propyl]-5-(4-methoxyphenyl)-7,7-dimethyl-4,5,6,7-tetrahydropyrazolo[1,5-a]pyrimidine-3-carboxamide] as the compound, how does the melting point read?
A: 188 to 189 °C

Q: For `CCC(CC)(NC(=O)c1cnn2c1NC(c1ccccc1Cl)CC2(C)C)c1ccc(C)cc1` (stereo not drawn) (as salt: HCl) [Example 961, 5-(2-chlorophenyl)-N-[1-ethyl-1-(4-methylphenyl)propyl]-7,7-dimethyl-4,5,6,7-tetrahydropyrazolo[1,5-a]pyrimidine-3-carboxamide], which melting point is on record?
A: 128 to 130 °C

Q: Which melting point does the source give for `CCC(CC)(NC(=O)c1cnn2c1NC(c1ccccc1OC)CC2(C)C)c1ccc(C)cc1` (stereo not drawn) (as salt: HCl) [Example 964, N-[1-ethyl-1-(4-methylphenyl)propyl]-5-(2-methoxyphenyl)-7,7-dimethyl-4,5,6,7-tetrahydropyrazolo[1,5-a]pyrimidine-3-carboxamide] here?
A: 158 to 159 °C

Q: For `CCC(CC)(NC(=O)c1c(C)nn2c1NC(c1ccccc1OC)CC2(C)C)c1ccc(C)cc1` (stereo not drawn) (as salt: HCl) [Example 965, N-(1-ethyl-1-(4-methylphenyl)propyl)-5-(2-methoxyphenyl)-2,7,7-trimethyl-4,5,6,7-tetrahydropyrazolo[1,5-a]pyrimidine-3-carboxamide], which melting point is on record?
A: 162 to 163 °C

Q: With `CCC(CC)(NC(=O)c1c(C)nn2c1NC(c1cccc(OC)c1)CC2(C)C)c1ccc(C)cc1` (stereo not drawn) (as salt: HCl) [Example 966, N-(1-ethyl-1-(4-methylphenyl)propyl)-5-(3-methoxyphenyl)-2,7,7-trimethyl-4,5,6,7-tetrahydropyrazolo[1,5-a]pyrimidine-3-carboxamide] as the compound, how does the melting point read?
A: 146 °C
